Experiment: Non-hygroscopicity test (storage in stability chambers, water content)
Type: physicochemical
Details: mesylate; for Water Content after 3 months (%): 40°C at humidity of 75%, for 3 months; for Initial Water Content (%): before storage
Method: In the present invention, samples of obtained crystalline forms are stored […] in stability chambers under following conditions of 40°C and humidity of 75%, for 3 months to support non-hygroscopic nature of novel forms of imatinib mesylate.
Non-hygroscopicity test results are listed below in table 1.

Row | Water Content after 3 months (%) | Initial Water Content (%) | SMILES
1 | 0.60 | 0.34 | CS(=O)(=O)O.Cc1ccc(NC(=O)c2ccc(CN3CCN(C)CC3)cc2)cc1Nc1nccc(-c2cccnc2)n1 [Polymorph β reference sample, 4-[(4-Methyl-1-piperazinyl)methyl]-N-[4-methyl-3-[[4-(3-pyridinyl)-2-pyrimidinyl]amino]phenyl]-benzamide mesylate, reference compound]
2 | 0.50 | 0.40 | CS(=O)(=O)O.Cc1ccc(NC(=O)c2ccc(CN3CCN(C)CC3)cc2)cc1Nc1nccc(-c2cccnc2)n1 [Polymorph Y sample, 4-[(4-Methyl-1-piperazinyl)methyl]-N-[4-methyl-3-[[4-(3-pyridinyl)-2-pyrimidinyl]amino]phenyl]-benzamide mesylate]

More lines, now with the values behind:

Row | SMILES | Water Content after 3 months (%) | Initial Water Content (%)
3 | CS(=O)(=O)O.Cc1ccc(NC(=O)c2ccc(CN3CCN(C)CC3)cc2)cc1Nc1nccc(-c2cccnc2)n1 [Polymorph P sample, 4-[(4-Methyl-1-piperazinyl)methyl]-N-[4-methyl-3-[[4-(3-pyridinyl)-2-pyrimidinyl]amino]phenyl]-benzamide mesylate] | 0.50 | 0.42
4 | CS(=O)(=O)O.Cc1ccc(NC(=O)c2ccc(CN3CCN(C)CC3)cc2)cc1Nc1nccc(-c2cccnc2)n1 [Polymorph M sample, 4-[(4-Methyl-1-piperazinyl)methyl]-N-[4-methyl-3-[[4-(3-pyridinyl)-2-pyrimidinyl]amino]phenyl]-benzamide mesylate] | 0.48 | 0.38
5 | CS(=O)(=O)O.Cc1ccc(NC(=O)c2ccc(CN3CCN(C)CC3)cc2)cc1Nc1nccc(-c2cccnc2)n1 [Polymorph B sample, 4-[(4-Methyl-1-piperazinyl)methyl]-N-[4-methyl-3-[[4-(3-pyridinyl)-2-pyrimidinyl]amino]phenyl]-benzamide mesylate] | 0.48 | 0.37

Source: patent publication EP2604596A1, “Polymorphs of imatinib” (priority 2011, dated 2013)
